Experimental data from US9492468B2, “Methods and compositions for treatment of acute heart failure” (PERICOR THERAPEUTICS, INC., priority 2008, dated 2016).
Structures can show the parent of a compound that is named as a salt.

Test system: dogs with advanced heart failure
Test: Single-dose 6 hours infusion study, hemodynamic, ventriculographic, echocardiographic, MVO2 and P-V loop measures
Assay type: in vivo, dog
Method: Studies were performed in purpose-bred, healthy and conditioned mongrel dogs weighing between 20 and 30 kg. The study was approved by Henry Ford Health System Institutional Animal Care and Use Committee and conformed to the National Institute of Health “Guide and Care for Use of Laboratory Animals” and the “Position of the American Heart Association on Research Animal Use” (Position of the American Heart Association on Research Animal Use. Circulation 1985; 71; 49A-50A).
Chronic LV dysfunction and failure was produced by multiple sequential intracoronary embolizations with polystyrene Latex; coronary microembolizations were performed during cardiac catheterization under general anesthesia and sterile conditions (Sabbah H N, et al. Am J Physiol (1991) 260:H1379-84; Sabbah H N, et al. Circulation (1994) 89:2852-9; Sabbah H N, et al. Am J Cardiol 99:41 A-46A, (2007)). Anesthesia was induced using a combination of intravenous injections of oxymorphone hydrochloride (0.22 mg/kg) and diazepam (0.2-0.6 mg/kg). Plane of anesthesia was maintained throughout the study using 1% to 2% isoflurane. Left and right heart catheterizations were performed via a femoral arteriotomy and venotomy. Coronary microembolizations were discontinued when LV ejection fraction, determined angiographically, was about 25%. A period of 2 weeks was allowed after the last microembolization to ensure that infarctions produced by the last microembolizations have completely healed and heart failure was established before the study is undertaken.
Six heart failure dogs described in Example 1 were used. Studies using active drug and placebo were performed in each dog in random order a minimum of one week apart. After baseline hemodynamic, angiographic and echocardiographic measurements, GP-531 tartrate or placebo was administered as a continuous constant intravenous infusion for 6 hours. The dose of GP-531 tartrate was 10 μg/kg/min. Complete hemodynamic, angiographic and echocardiographic measurements were made during baseline, and at 1, 2, 3, 4, 5 and 6 hours after initiating drug infusion. In addition, myocardial oxygen consumption (MVO2) was measured at baseline and 4 and 6 hours after initiating drug or saline infusion. LV pressure-volume relationships (P-V Loops) were also measured at baseline and at 6 hours after initiating drug or saline infusion to assess load independent contractility and relaxation. Venous blood samples were obtained at baseline and hourly thereafter. Blood samples (at least […]) were centrifuged at 3000 rpm for 10 minutes and plasma withdrawn and placed in cryostorage tubes and stored upright at −20° C. until needed. Venous blood samples were used to evaluate plasma levels of troponin-I and plasma levels of n-terminal pro-brain natriuretic peptide (NT-proBNP).
Study Primary End-Points were: (1) change in LV ejection fraction determined from ventriculography; (2) change in LV end-systolic and end-diastolic volume determined from ventriculography; (3) change in MVO2; and (4) change in the slope of the LV end-systolic and end-diastolic P-V relationship.
All hemodynamic measurements were made during left and right heart catheterizations in anesthetized dogs at each specified study time point. Heart rate (HR), mean aortic pressure (mAoP), LV end-diastolic pressure (LVEDP), stroke volume (SV), cardiac output (CO) and systemic vascular resistance (SVR) were measured at each study time point. Left ventriculograms were performed during cardiac catheterization after completion of the hemodynamic measurements. Left ventriculograms were obtained with the dog placed on its right side and digitally recorded during the injection of 20 ml of contrast material (RENO-M-60 Squibb, Princeton, N.J.). Correction for image magnification was made using a radiopaque grid placed at the level of the LV. […]

[1] = HF dogs n=6, iv 10 μg/kg/min constant infusion, 1 h
[2] = HF dogs n=6, iv 10 μg/kg/min constant infusion, 2 h
[3] = HF dogs n=6, iv 10 μg/kg/min constant infusion, 3 h
[4] = HF dogs n=6, iv 10 μg/kg/min constant infusion, 4 h
[5] = HF dogs n=6, iv 10 μg/kg/min constant infusion, 5 h
[6] = HF dogs n=6, iv 10 μg/kg/min constant infusion, 6 h
[7] = HF dogs n=6, iv 10 μg/kg/min for 6 h
[8] = HF dogs n=6, iv 10 μg/kg/min for 6 h, time-dependent
[9] = HF dogs n=6, iv 10 μg/kg/min for 6 h, vs baseline

NC(=O)c1ncn(C2OC(CNCc3ccccc3)C(O)C2O)c1N (centres unmarked) [GP-531 tartrate]
Cardiac output (CO) [1]: 1.42 ± 0.08 L/min | Deceleration time of early mitral inflow velocity (DCT) [1]: 100 ± 5 ms | Ei/Ai (ratio of mitral inflow time-velocity integrals) [1]: 1.78 ± 0.23 | Heart rate (HR) [1]: 78 ± 1 beats/min | LV end-diastolic circumferential wall stress (EDWS) [1]: 53 ± 7 gm/cm^2 | LV end-diastolic pressure (LVEDP) [1]: 12 ± 1.1 mmHg | LV end-diastolic volume (EDV) [1]: 64 ± 2 mL | LV end-systolic volume (ESV) [1]: 46 ± 2 mL | LV fractional area of shortening (FAS) [1]: 26 ± 0.8% | Mean aortic pressure (mAoP) [1]: 77 ± 3 mmHg | PE/PA (ratio of peak mitral flow velocities) [1]: 1.7 ± 0.10 | Stroke volume (SV) [1]: 18 ± 1.0 mL | Systemic vascular resistance (SVR) [1]: 4368 ± 248 dynes-sec-cm^−5 | Cardiac output (CO) [2]: 1.47 ± 0.11 L/min | Deceleration time of early mitral inflow velocity (DCT) [2]: 109 ± 4 ms | Ei/Ai (ratio of mitral inflow time-velocity integrals) [2]: 2.03 ± 0.23 | Heart rate (HR) [2]: 78 ± 2 beats/min | LV end-diastolic circumferential wall stress (EDWS) [2]: 47 ± 5 gm/cm^2 | LV end-diastolic pressure (LVEDP) [2]: 12 ± 0.9 mmHg | LV end-diastolic volume (EDV) [2]: 63 ± 2 mL | LV end-systolic volume (ESV) [2]: 44 ± 2 mL | LV fractional area of shortening (FAS) [2]: 27 ± 1.3 % | Mean aortic pressure (mAoP) [2]: 77 ± 3 mmHg | PE/PA (ratio of peak mitral flow velocities) [2]: 1.8 ± 0.10 | Stroke volume (SV) [2]: 19 ± 1.2 mL | Systemic vascular resistance (SVR) [2]: 4250 ± 327 dynes-sec-cm^−5 | Cardiac output (CO) [3]: 1.53 ± 0.08 L/min | Deceleration time of early mitral inflow velocity (DCT) [3]: 113 ± 6 ms | Ei/Ai (ratio of mitral inflow time-velocity integrals) [3]: 2.40 ± 0.29 | Heart rate (HR) [3]: 79 ± 3 beats/min | LV end-diastolic circumferential wall stress (EDWS) [3]: 47 ± 6 gm/cm^2 | LV end-diastolic pressure (LVEDP) [3]: 12 ± 1.1 mmHg | LV end-diastolic volume (EDV) [3]: 63 ± 2 mL | LV end-systolic volume (ESV) [3]: 44 ± 2 mL | LV fractional area of shortening (FAS) [3]: 29 ± 0.9 % | Mean aortic pressure (mAoP) [3]: 79 ± 3 mmHg | PE/PA (ratio of peak mitral flow velocities) [3]: 1.9 ± 0.07 | Stroke volume (SV) [3]: 19 ± 0.8 mL | Systemic vascular resistance (SVR) [3]: 4157 ± 212 dynes-sec-cm^−5 | Cardiac output (CO) [4]: 1.63 ± 0.05 L/min | Deceleration time of early mitral inflow velocity (DCT) [4]: 113 ± 5 ms | Ei/Ai (ratio of mitral inflow time-velocity integrals) [4]: 2.51 ± 0.21 | Heart rate (HR) [4]: 80 ± 3 beats/min | LV end-diastolic circumferential wall stress (EDWS) [4]: 44 ± 7 gm/cm^2 | LV end-diastolic pressure (LVEDP) [4]: 11 ± 1.2 mmHg | LV end-diastolic volume (EDV) [4]: 63 ± 2 mL | LV end-systolic volume (ESV) [4]: 42 ± 2 mL | LV fractional area of shortening (FAS) [4]: 31 ± 1.5 % | Mean aortic pressure (mAoP) [4]: 79 ± 3 mmHg | Myocardial oxygen consumption (MVO2) [4]: 114 ± 14 μmols/min | PE/PA (ratio of peak mitral flow velocities) [4]: 2.1 ± 0.09 | Stroke volume (SV) [4]: 21 ± 0.9 mL | Systemic vascular resistance (SVR) [4]: 3895 ± 168 dynes-sec-cm^−5 | Cardiac output (CO) [5]: 1.64 ± 0.07 L/min | Deceleration time of early mitral inflow velocity (DCT) [5]: 118 ± 6 ms | Ei/Ai (ratio of mitral inflow time-velocity integrals) [5]: 2.68 ± 0.23 | Heart rate (HR) [5]: 79 ± 4 beats/min | LV end-diastolic circumferential wall stress (EDWS) [5]: 43 ± 7 gm/cm^2 | LV end-diastolic pressure (LVEDP) [5]: 11 ± 1.2 mmHg | LV end-diastolic volume (EDV) [5]: 62 ± 2 mL | LV end-systolic volume (ESV) [5]: 41 ± 2 mL | LV fractional area of shortening (FAS) [5]: 31 ± 1.4 % | Mean aortic pressure (mAoP) [5]: 77 ± 2 mmHg | PE/PA (ratio of peak mitral flow velocities) [5]: 2.2 ± 0.05 | Stroke volume (SV) [5]: 21 ± 1.1 mL | Systemic vascular resistance (SVR) [5]: 3823 ± 221 dynes-sec-cm^−5 | Cardiac output (CO) [6]: 1.69 ± 0.04 L/min | Deceleration time of early mitral inflow velocity (DCT) [6]: 118 ± 4 ms | Ei/Ai (ratio of mitral inflow time-velocity integrals) [6]: 2.77 ± 0.23 | Heart rate (HR) [6]: 81 ± 4 beats/min | LV end-diastolic circumferential wall stress (EDWS) [6]: 41 ± 7 gm/cm^2 | LV end-diastolic pressure (LVEDP) [6]: 10 ± 1.2 mmHg | LV end-diastolic volume (EDV) [6]: 62 ± 2 mL | LV end-systolic volume (ESV) [6]: 41 ± 2 mL | LV fractional area of shortening (FAS) [6]: 32 ± 1.1 % | Mean aortic pressure (mAoP) [6]: 76 ± 3 mmHg | Myocardial oxygen consumption (MVO2) [6]: 115 ± 12 μmols/min | PE/PA (ratio of peak mitral flow velocities) [6]: 2.2 ± 0.06 | Slope of end-diastolic pressure-volume relation (EDPVR) [6]: 0.296 ± 0.018 mmHg/ml | Slope of end-systolic pressure volume relation (ESPVR) [6]: 2.43 ± 0.35 mmHg/ml | Stroke volume (SV) [6]: 21 ± 0.8 mL | Systemic vascular resistance (SVR) [6]: 3571 ± 113 dynes-sec-cm^−5 | Ventricular or atrial arrhythmias [7]: did not evoke any ventricular or atrial arrhythmias | Effect on DCT [8]: increased | Effect on EDWS [8]: decreased significantly | Effect on Ei/Ai [8]: increased significantly | Effect on PE/PA [8]: increased significantly | Effect on HR [9]: no effect | Effect on mAoP [9]: no effect | Effect on EF (LVEF) (HF dogs n=6, iv 10 μg/kg/min for 6 h, vs baseline, listed as GP-531 tartrate salt): increase | Effect on slope of the EDPVR (HF dogs n=6, iv 10 μg/kg/min, 6 hours, not statistically significant): tended to decrease | LV systolic and diastolic function (HF dogs, iv 10 μg/kg/min for 6 hours): can improve both LV systolic and diastolic function

NC(=O)c1ncn(C2OC(CNCc3ccccc3)C(O)C2O)c1N [GP-531, 5-amino-1-β-D-(5-benzylamino-5-deoxy-1-β-D-ribofuranosyl)imidazole-4 carboxamide]
Time after initiating drug infusion at which improvements (EDV, ESV, EF, FAS) occurred (HF dogs n=6, iv 10 μg/kg/min): 1 to 3 h | Acute decompensation [7]: None of the dogs treated with GP-531 developed acute decompensation | Changes in MVO2 [7]: absence of any changes | Death [7]: none died | Effect on peak +dP/dt [7]: no significant effects | Effect on peak −dP/dt [7]: no significant effects | Effect on LVEDP (HF dogs n=6, iv 10 μg/kg/min for 6 h, time-dependent, significance at 5 hours): significantly decreased | Effect on CO [9]: significant increase | Effect on EDV [9]: modest but statistically significant effect on reducing | Effect on EF (LVEF) [9]: increased | Effect on ESV [9]: significantly decreased | Effect on FAS [9]: increased | Effect on SV [9]: significant increase | Effect on SVR [9]: decrease | Effect on slope of the ESPVR (HF dogs n=6, iv 10 μg/kg/min, 6 h vs baseline): significantly increased
